Assay results taken from patent publication US20170275270A1, “BENZYL SUBSTITUTED INDAZOLES” (Bayer Pharma Aktiengesellschaft, priority 2014, published 2017).
Values joined by “and” are separate entries in the source; they are usually repeats but may differ in a detail not shown here. Equal values may be shown once. Where a name gives a salt, the structure may show the parent alone. Read-outs that look alike come from different tables or passages of the source.

What was measured:
HeLa = assay: Proliferation assay (HeLa cell line);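 also: crystal violet staining of cell number, scaled between a plate stained before dosing (0%) and cells left untreated (100%), compounds tested at 0.001-10 µM, IC50 via 4-parameter fit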
[1] = system: HeLa human cervical tumor cells; assay: Proliferation assay (HeLa+Paclitaxel); conditions: read-out: Biological Assay 3: HeLa + Paclitaxel IC50, 3 nM paclitaxel, crystal violet;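 also: compounds at 0.001-10 µM added 4 h after paclitaxel, 92 h exposure, absorbance normalized to zero-point plate (0%) and untreated cells (100%), IC50 from 4-parameter fit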
Bub1 = Bub1 (Homo sapiens, UniProt O43683); assay: Formation-Assay: phosphorylation status of histone 2A by inhibition of kinase activity of Bub1; type: cell-based; conditions: Biological Assay 4.1: H2A Formation IC50, co-treatment with Nocodazole 1 μg/ml, 16 h
Chain of Bub1 (O43683 whole entry): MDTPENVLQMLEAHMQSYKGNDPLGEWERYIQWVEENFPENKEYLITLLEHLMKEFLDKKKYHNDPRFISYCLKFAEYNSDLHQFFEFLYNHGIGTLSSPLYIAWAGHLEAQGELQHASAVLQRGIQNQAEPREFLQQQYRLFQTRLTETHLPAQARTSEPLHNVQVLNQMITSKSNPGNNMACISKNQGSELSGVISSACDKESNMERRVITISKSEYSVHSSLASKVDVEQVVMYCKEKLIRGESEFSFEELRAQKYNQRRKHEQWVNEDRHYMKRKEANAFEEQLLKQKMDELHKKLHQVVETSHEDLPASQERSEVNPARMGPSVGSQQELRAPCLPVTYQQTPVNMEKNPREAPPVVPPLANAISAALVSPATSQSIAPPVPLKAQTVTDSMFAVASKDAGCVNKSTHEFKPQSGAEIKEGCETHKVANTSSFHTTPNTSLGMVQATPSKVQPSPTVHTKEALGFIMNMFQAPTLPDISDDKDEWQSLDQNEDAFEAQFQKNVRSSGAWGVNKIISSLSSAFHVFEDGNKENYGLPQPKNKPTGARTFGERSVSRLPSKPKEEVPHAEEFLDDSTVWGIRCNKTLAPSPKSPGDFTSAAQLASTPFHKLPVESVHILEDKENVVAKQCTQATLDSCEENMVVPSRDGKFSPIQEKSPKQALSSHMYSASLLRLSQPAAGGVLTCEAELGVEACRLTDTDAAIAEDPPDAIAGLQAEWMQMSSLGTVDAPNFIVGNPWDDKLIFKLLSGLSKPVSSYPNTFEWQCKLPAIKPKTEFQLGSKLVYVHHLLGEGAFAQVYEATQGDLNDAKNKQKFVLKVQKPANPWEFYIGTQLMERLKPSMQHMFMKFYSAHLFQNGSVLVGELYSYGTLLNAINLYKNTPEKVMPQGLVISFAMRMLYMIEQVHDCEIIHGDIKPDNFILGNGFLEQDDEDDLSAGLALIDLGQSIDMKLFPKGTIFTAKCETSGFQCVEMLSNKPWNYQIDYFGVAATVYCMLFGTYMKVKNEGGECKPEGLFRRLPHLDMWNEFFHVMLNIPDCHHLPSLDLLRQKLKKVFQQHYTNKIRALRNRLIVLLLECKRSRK
Outline: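 Cells co-treated 16 h with Nocodazole (1 μg/ml) and compound (3 nM–10 μM), then fixed and immunostained for phospho-H2A, read by infrared imaging (800 nm) normalised to cell stain (700 nm). Nocodazole-only set as 100%, untreated cells as 0%.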

[2] = molecular target: T1, catalytic domain of human Bub1 (amino acids 704-1085) (Homo sapiens, UniProt O43683); assay: Bub1 kinase assay (TR-FRET); type: biochemical
T1 construct: catalytic domain of human Bub1 (amino acids 704-1085); His6 (N); made in house; host or cells: Hi5 insect cells
T1 sequence (O43683 704-1085): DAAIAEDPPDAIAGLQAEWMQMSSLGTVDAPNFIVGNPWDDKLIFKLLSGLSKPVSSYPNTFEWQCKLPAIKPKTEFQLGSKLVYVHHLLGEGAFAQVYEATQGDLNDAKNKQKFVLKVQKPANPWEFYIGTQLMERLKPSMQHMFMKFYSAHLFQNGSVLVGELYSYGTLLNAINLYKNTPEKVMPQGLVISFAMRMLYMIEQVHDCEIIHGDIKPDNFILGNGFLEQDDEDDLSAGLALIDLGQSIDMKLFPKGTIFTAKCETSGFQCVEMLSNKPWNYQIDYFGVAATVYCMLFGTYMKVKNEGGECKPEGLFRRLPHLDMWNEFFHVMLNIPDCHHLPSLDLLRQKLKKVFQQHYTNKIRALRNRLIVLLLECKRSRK
Outline: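 TR-FRET read-out (Eu-anti-mouse IgG/anti-phosphoserine antibody to streptavidin-XL665 on biotinylated peptide) after EDTA stop and 1 h complex formation at 22° C. Kinase reaction ran 60 min at 22° C with 1:3.4 serial dilutions from 2 mM DMSO stocks. IC50 from 4-parameter logistic fit of normalized inhibition.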

[3] = Homo sapiens, 96 h, read-out: Biological Assay 2: Proliferation assay (HeLa cell line) median IC50
[4] = Biological Assay 1: Bub1 kinase assay median IC50, 10 μM ATP
[5] = 10 μM ATP, read-out: Biological Assay 1: Bub1 kinase assay median IC50

SMILES | IC50 (HeLa; [3]) [nM] | IC50 [1] [nM] | IC50 (Bub1) | IC50 [2, 4] [nM] | IC50 [2, 5] [nM] | IC50 (HeLa; read-out: Biological Assay 2: Proliferation assay (HeLa cell line) median IC50, 4 days, crystal violet) [nM]
CCOc1cc(F)c(Cn2nc(-c3ncc(CCCO)c(Nc4ccncc4)n3)c3ccccc32)c(F)c1 [Example 2-13-1, 3-{2-[1-(4-ethoxy-2,6-difluorobenzyl)-1H-indazol-3-yl]-4-(pyridin-4-ylamino)pyrimidin-5-yl}propan-1-ol] | 3700 | 370 | 8.2 nM | 5.3 |  | 
CCOc1cc(F)c(Cn2nc(-c3ncc(CCNCC(F)(F)F)c(Nc4ccncc4)n3)c3ccccc32)c(F)c1 [Example 2-16-1, 2-[1-(4-ethoxy-2,6-difluorobenzyl)-1H-indazol-3-yl]-N-(pyridin-4-yl)-5-{2-[(2,2,2-trifluoroethyl)amino]ethyl}pyrimidin-4-amine] | 3000 | 200 | 18 nM | 18 |  | 
OCCOc1cc(F)c(Cn2nc(-c3ncc(C4CCN(CCC(F)(F)F)CC4)c(Nc4ccncc4Cl)n3)c3ccccc32)c(F)c1 [Example 2-6-15, 2-{4-[(3-{4-[(3-chloropyridin-4-yl)amino]-5-[1-(3,3,3-trifluoropropyl)piperidin-4-yl]pyrimidin-2-yl}-1H-indazol-1-yl)methyl]-3,5-difluorophenoxy} ethanol] | 2200 | 180 | 19 nM | 31 |  | 
CCOc1cc(F)c(Cn2nc(-c3ncc(CC4CNC4)c(Nc4ccncc4)n3)c3ccccc32)c(F)c1 [Example 2-9-4, 5-(azetidin-3-ylmethyl)-2-[1-(4-ethoxy-2,6-difluorobenzyl)-1H-indazol-3-yl]-N-(pyridin-4-yl)pyrimidin-4-amine, salt with hydrochloric acid] | 1900 | 420 | 440 nM |  | 7.8 | 
CCOc1cc(F)c(Cn2nc(-c3nc4c(c(Nc5ccncc5OC)n3)COC4)c3ccccc32)c(F)c1 [Example 2-19-17, 2-[1-(4-ethoxy-2,6-difluorobenzyl)-1H-indazol-3-yl]-N-(3-methoxypyridin-4-yl)-5,7-dihydrofuro[3,4-d]pyrimidin-4-amine] | 1500 | 140 | 7100 nM |  | 18 | 
CCOc1cc(F)c(Cn2nc(-c3ncc(CCCN4CCC(F)(F)CC4)c(Nc4ccncc4)n3)c3ccccc32)c(F)c1 [Example 2-2-18, 5-[3-(4,4-difluoropiperidin-1-yl)propyl]-2-[1-(4-ethoxy-2,6-difluorobenzyl)-1H-indazol-3-yl]-N-(pyridin-4-yl)pyrimidin-4-amine] | > 10000 | 400 | 8700 nM | 130 |  | 
Cc1nccc(Nc2nc(-c3nn(Cc4c(F)cc(O)cc4F)c4ccccc34)nc3c2CCC3)n1 [Example 2-6-12, 3,5-difluoro-4-[(3-{4-[(2-methylpyrimidin-4-yl)amino]-6,7-dihydro-5H-cyclopenta[d]pyrimidin-2-yl}-1H-indazol-1-yl)methyl]phenol] | > 10000 | 2100 | 2300 nM | 44 |  | 
CCOc1cc(F)c(Cn2nc(-c3nc4c(c(Nc5cc(C)ncc5C)n3)CC(C)(C)CC4)c3ccccc32)c(F)c1 [Example 2-12-68, N-(2,5-dimethylpyridin-4-yl)-2-[1-(4-ethoxy-2,6-difluorobenzyl)-1H-indazol-3-yl]-6,6-dimethyl-5,6,7,8-tetrahydroquinazolin-4-amine] | 2700 | 78 | 3.8 nM |  | 35 | 
Cc1cc(Nc2nc(-c3nn(Cc4c(F)cc(OCCO)cc4F)c4ccccc34)nc3c2CCC3)c(C)cn1 [Example 2-6-20, 2-{4-[(3-{4-[(2,5-dimethylpyridin-4-yl)amino]-6,7-dihydro-5H-cyclopenta[d]pyrimidin-2-yl}-1H-indazol-1-yl)methyl]-3,5-difluorophenoxy} ethanol] | 3400 | 140 | 1.8 nM |  | 66 | 
CCOc1cc(F)c(Cn2nc(-c3ncc(CCN)c(Nc4ccnc(NC(C)=O)c4)n3)c3ccccc32)c(F)c1 [Example 2-9-13, N-[4-({5-(2-aminoethyl)-2-[1-(4-ethoxy-2,6-difluorobenzyl)-1H-indazol-3-yl]pyrimidin-4-yl}amino)pyridin-2-yl]acetamide, salt with hydrochloric acid] | 1000 | 150 | 160 nM |  | 7.1 | 
CCOc1cc(F)c(Cn2nc(-c3nc(Nc4ccncc4)cc(C(C)C)n3)c3ccccc32)c(F)c1 [Example 2-12-3, 2-[1-(4-ethoxy-2,6-difluorobenzyl)-1H-indazol-3-yl]-6-(propan-2-yl)-N-(pyridin-4-yl)pyrimidin-4-amine] | 4900 | 1400 | 34 nM | 17 |  | 
CCOc1cc(F)c(Cn2nc(-c3nc(CN4CCOCC4)cc(Nc4ccncc4OC)n3)c3ccccc32)c(F)c1 [Example 2-19-13, 2-[1-(4-ethoxy-2,6-difluorobenzyl)-1H-indazol-3-yl]-N-(3-methoxypyridin-4-yl)-6-(morpholin-4-ylmethyl)pyrimidin-4-amine] | 3400 | 130 | 3800 nM |  | 7.7 | 
CCOc1cc(F)c(Cn2nc(-c3ncc(CCCOC)c(Nc4ccncc4C(N)=O)n3)c3ccccc32)c(F)c1 [Example 2-10-1, 4-({2-[1-(4-ethoxy-2,6-difluorobenzyl)-1H-indazol-3-yl]-5-(3-methoxypropyl)pyrimidin-4-yl}amino)nicotinamide] | > 10000 | 1300 | 3400 nM | 11 |  | 
OCCOc1cc(F)c(Cn2nc(-c3ncc(C4CCN(CC(F)(F)F)CC4)c(Nc4ccncc4Cl)n3)c3ccccc32)c(F)c1 [Example 2-6-14, 2-{4-[(3-{4-[(3-chloropyridin-4-yl)amino]-5-[1-(2,2,2-trifluoroethyl)piperidin-4-yl]pyrimidin-2-yl}-1H-indazol-1-yl)methyl]-3,5-difluorophenoxy} ethanol] | 2400 | 340 | 7.1 nM | 36 |  | 
COc1cnccc1Nc1nc(-c2nn(Cc3c(F)cc(OCCO)cc3F)c3ccccc23)nc2c1CCC2 [Example 2-4-5, 2-{3,5-difluoro-4-[(3-{4-[(3-methoxypyridin-4-yl)amino]-6,7-dihydro-5H-cyclopenta[d]pyrimidin-2-yl}-1H-indazol-1-yl)methyl]phenoxy}ethanol] | 2600 | 180 | 3900 nM |  | 28 | 
CCOc1cc(F)c(Cn2nc(-c3nc(CN4CCOCC4)cc(Nc4ccncc4Cl)n3)c3ccccc32)c(F)c1 [Example 2-12-34, N-(3-chloropyridin-4-yl)-2-[1-(4-ethoxy-2,6-difluorobenzyl)-1H-indazol-3-yl]-6-(morpholin-4-ylmethyl)pyrimidin-4-amine] | 7800 | 500 | 700 nM |  | 36 | 
CCOc1cc(F)c(Cn2nc(-c3ncc(C4CCNCC4)c(Nc4ccncc4)n3)c3ccccc32)c(F)c1 [Example 2-9-3, 2-[1-(4-ethoxy-2,6-difluorobenzyl)-1H-indazol-3-yl]-5-(piperidin-4-yl)-N-(pyridin-4-yl)pyrimidin-4-amine, salt with hydrochloric acid] |  | 240 | > 3000 nM and 4900 nM | 5.8 |  | 1100
